Source: patent publication US20120015923A1, “USE OF ANDROGRAPHOLIDE COMPOUNDS FOR TREATING INFLAMMATION AND AIRWAY DISORDERS” (NATIONAL UNIVERSITY OF SINGAPORE, priority 2009, published 2012)

Key:
[1] = tested on: OVA-induced inflammatory cell recruitment; test: BAL fluid total and differential inflammatory cell counts, OVA mouse asthma model; type: in vivo, BALB/c mice; settings: for total cell count in BAL fluid: 0.1, 0.5 and 1 mg/kg i.p. 2 h before and 10 h after each challenge; for total cell count in BAL fluid / eosinophil count in BAL fluid: BAL fluid 24 hours after last OVA aerosol, vs DMSO control; for eosinophil count in BAL fluid: 0.1, 0.5 and 1 mg/kg i.p.; for OVA-induced inflammatory cell counts in BAL fluid: sensitized mice 24 hours after last OVA aerosol challenge, 0.1, 0.5, 1 mg/kg
Method: Female BALB/c mice (Interfauna, East Yorkshire, UK), were housed in appropriate cages (maximum 4 mice/cage) at the Animal Holding Unit (AHU), NUS. The temperature and humidity of the housing environment were maintained at approximately 22° C. and 55% respectively. Commercial mouse feed and water were provided ad libitum. The beddings were changed three times a week to ensure cleanliness of the living conditions. The handling of mice and the experiments carried out strictly followed the guidelines approved by the Institutional Animal Care and Use Committee (IACUC) of NUS, Singapore.
All mice were acclimatized for at least one week before sensitization. A sensitization mixture was prepared by dissolving 20 μg of OVA and 4 mg of Al(OH)3 in 0.1 ml of Saline. The murine asthma model was developed by sensitizing the mice with 0.1 ml of sensitization mixture on Day 0 and Day 14 using intraperitoneal (i.p.) injections.
The sensitized mice were subjected to airway challenge to produce both the control model as well as the asthma model. A challenge mix was prepared by dissolving 0.15 g OVA into 15 ml of saline solution. The mice were then challenged with aerosolized 1% OVA for 30 minutes on Day 22, 23, 24 to stimulate asthmatic response. A negative control for the asthma model was developed by performing saline challenge on several mice. In this case, 15 ml of saline was used as the challenge mix.
(§1) Andrographolide or DDAG alone (0.1, 0.5, and 1 mg/kg; Sigma, St. Louis, Mo.) or vehicle (1% dimethyl sulfoxide [DMSO]) in 0.1 ml saline was given by intraperitoneal injections 2 hour before and 10 hours after each OVA aerosol challenge. Andrographolide or 14-deoxy-11,12-didehydroandrographolide (DDA) were prepared from stock. DMSO was used as a solvent to dissolve Andrographolide or DDA. A stock solution of 10 mg/ml was prepared and stored at −20° C. When used, the stock solution was thawed and diluted with Saline solution to form three different drug concentrations: 0.01 mg/ml, 0.05 mg/ml and 0.1 mg/ml.
(§2) Bronchoalveolar lavage (BAL) was conducted on Day 25, 24 hours after the final OVA/saline challenge. Mice were anaesthetized by 0.3 ml i.p. injections of an anesthetic cocktail (ketamine: medetomidine: H2O=3:4:33, Parnell, Alexandria NSW, Australia & Pfizer, Auckland, New Zealand) with 27 G½ sterile needle (PrecisionGlide®). Mice were sacrificed by cervical dislocation 5 minutes after anesthetization. 25 G½ sterile needles (PrecisionGlide®) were used for blood extraction. […] Tracheotomy was then performed and a small transverse incision was made on the exposed trachea. Blunt needles (20 G), which were connected to 1 ml sterile syringes, were inserted into the trachea through this incision and 0.5 ml of ice-cold PBS (4° C.) was instilled thrice into the lungs (0.5 ml×3). About 1.2-1.4 ml of BAL fluid was retrieved from each mouse and was kept in −80° C. for subsequent experiments.
BAL fluid collected from the lungs of the mouse was centrifuged at 3000 rpm for 5 min at 4° C. The supernatant was collected and stored at −80° C. The pellet was resuspended in 200 μl of 0.875% NH4Cl (8.75 mg NH4Cl in 1 ml MilliQ water) and incubated for 5 minutes at room temperature to remove unwanted erythrocytes. The cell suspension was then centrifuged at 3000 rpm for 5 min at 4° C. The supernatant was discarded and the pellet containing inflammatory cells was resuspended in 200 μl of RPMI with 1% BSA (10 mg BSA in 1 ml RPMI). The total number of viable cells was enumerated using a haemocytometer (10 μl of 0.4% trypan blue: 10 μl of cell suspension), under a microscope at 200×magnification.
Following the total cell count, dilutions were performed on the BAL fluid collected with the RPMI/BSA solution (1×10^5 cells per 150 μl of RPMI/BSA). Cytocentrifugation was then carried out on all samples using a Cytospin centrifuge (Thermo Shandon, Pittsburgh, USA) at 600 g for 10 minutes to fix the cells on glass slides. […]

[2] = tested on: IL-4, IL-5, IL-13, eotaxin and IFN-γ in the BAL fluid; test: Cytokine and chemokine levels in BAL fluid (ELISA), OVA mouse asthma model; type: in vivo, BALB/c mice; settings: OVA-challenged mice
Method: as §1, §2
DDAG alone (0.1, 0.5, and 1 mg/kg; Sigma, St. Louis, Mo.) or vehicle (2% dimethyl sulfoxide [DMSO]) in 0.1 ml saline was given by intraperitoneal injections 2 hour before and 10 hours after each OVA aerosol challenge. In the combinational experiments, DDAG (0.1 mg/kg) in combination with Dexamethasone (0.05 mg/kg) was given intraperitoneally. In both experimental setting, saline aerosol was used as a negative control. Animal experiments were performed according to the Institutional guidelines for Animal Care and Use Committee of the National University of Singapore.
Levels of IL-4, 11-5, IL-13, eotaxin and IFN-γ in the BAL fluid were measured (IL-4, IL-5 and IFN-γ from BD Biosciences Pharmingen, San Diego, Calif., USA; IL-13 and eotaxin from R&D Systems, Minneapolis, Minn., USA). The kits were obtained from two different manufacturers and thus the protocols differed in certain steps. In brief, 50 μl of coating capture antibody in respective coating buffers (pH 9.5, 0.1 M sodium carbonate for IL-4, IL-5 and IFN-γ; 1×PBS for IL-13 and eotaxin) was coated to 96-well ELISA plate (NUNC, Denmark). The plate was sealed with parafilm and incubated overnight at respective temperature (4° C. for IL-4, IL-5 and IFN-γ and room temperature for IL-13 and eotaxin). Next day, each well was washed with washing buffer (PBS with 0.05% Tween-20) and blocked with 200 μl blocking buffer (PBS with 10% FBS for IL-4, IL-5 and IFN-γ; 1×PBS with 1% BSA and 5% sucrose for IL-13 and eotaxin) for 2 hours at room temperature. After blocking, 50 μl of standards and BAL fluid samples were loaded into respective wells, and incubated for 2 h at room temperature. Several washings were done to remove unbound molecules. The plate was incubated with biotinylated-detection antibody with HRP for 1 h (BD OptEIA™ Kit) or with biotinylated detection antibody for 1 h followed by HRP for 45 min (R&D Kit). After washing, 50 μl of TMB peroxidase substrate (solution A: solution B=9:1) was added into each well, and incubated for 30 min in dark. Lastly, 50 μl of stopping solution (1 M H2SO4) was added to stop the reaction. The optical density of each well in the plate was read at 450 nm with λ correction at 570 nm. Detection limits of the respective kits are as follow: 4 pg/ml for IL-4 and IL-5; 15.6 pg/ml for IL-13 and IFN-γ; and 2 pg/ml for eotaxin.

[3] = 0.1, 0.5, 1 mg/kg i.p., 24 hours after last OVA aerosol, vs DMSO control
[4] = OVA-challenged mice, high dose 1 mg/kg i.p.

Row | SMILES | total cell count in BAL fluid ([1]; OVA-challenged mice) | eosinophil count in BAL fluid ([1]; OVA-challenged mice) | OVA-induced lymphocyte counts in BAL fluid ([1]; OVA-challenged mice, dose not stated) | OVA-induced inflammatory cell counts in BAL fluid [1] | IL-4 level in BAL fluid [2, 3] | IL-5 level in BAL fluid [2, 3] | IL-13 level in BAL fluid [2, 3] | eotaxin level in BAL fluid [2, 3] | lymphocyte count in BAL fluid [1, 4] | macrophage count in BAL fluid [1, 4] | anti-inflammatory effects in mouse asthma model ([1]; low dose given alone) | IFN-γ level in BAL fluid ([2]; 1 mg/kg)
1 | C=C1CC[C@@H]2[C@](C)(CO)[C@H](O)CC[C@@]2(C)[C@@H]1C/C=C1/C(=O)OC[C@H]1O [Andrographolide] | inhibited | inhibited | inhibited | dose-dependently reduced | inhibited | inhibited | inhibited | inhibition |  |  |  | 
2 | C=C1CCC2C(C)(CO)C(O)CCC2(C)C1C=CC1=CCOC1=O (stereo not drawn) [DDAG, 14-Deoxy-11,12-didehydroandrographolide] | drastically decreased | drastically decreased |  | dose-dependently reduced | significantly (P<0.05) reduced | significantly (P<0.05) reduced | significantly (P<0.05) reduced |  | reduced | reduced | do not show any anti-inflammatory effects | markedly upregulated
